Results from patent US10383332B2, “Antimicrobial compositions and related methods of use” (Jeneil Biosurfactant Company, LLC, priority 2013, dated 2019).

Tests used:
Experiment in all cases: Vapor test, microcup on PDA Petri plate
Conditions in all cases: vapors
Geotrichum candidum = test system: Geotrichum candidum
Aspergillus niger = test system: Aspergillus niger
Botrytis alli = test system: Botrytis alli
Pythium ultimum = test system: Pythium ultimum
Cercospora beticola = test system: Cercospora beticola
Phytophthora palmivora = test system: Phytophthora palmivora
Rhizoctonia solani = test system: Rhizoctonia solani
Aspergillus fumigatus = test system: Aspergillus fumigatus

CCC(=O)O [Propanoic Acid, propanoic acid]
0%: % inhibition, alone at 20 μl After 24 hr (C) (Geotrichum candidum) | % inhibition, alone at 20 μl After 24 hr (C) (Aspergillus niger) | % inhibition, alone at 20 μl After 24 hr (C) (Botrytis alli) | % inhibition, alone at 20 μl After 24 hr (C) (Aspergillus fumigatus)
Alive: Alive or dead, alone at 20 μl After 24 hr (C) (Geotrichum candidum) | Alive or dead, alone at 20 μl After 24 hr (C) (Aspergillus niger) | Alive or dead, alone at 20 μl After 24 hr (C) (Botrytis alli) | Alive or dead, alone at 20 μl After 24 hr (C) (Pythium ultimum) | Alive or dead, alone at 20 μl After 24 hr (C) (Cercospora beticola) | Alive or dead, alone at 20 μl After 24 hr (C) (Rhizoctonia solani) | Alive or dead, alone at 20 μl After 24 hr (C) (Aspergillus fumigatus)
75%: % inhibition, alone at 20 μl After 24 hr (C) (Cercospora beticola)
100%: % inhibition, alone at 20 μl After 24 hr (C) (Phytophthora palmivora)
80%: % inhibition, alone at 20 μl After 24 hr (C) (Pythium ultimum) | % inhibition, alone at 20 μl After 24 hr (C) (Rhizoctonia solani)
